Here are results for one compound from paper PMC9316017, “Succinimido–Ferrocidiphenol Complexed with Cyclodextrins Inhibits Glioblastoma Tumor Growth In Vitro and In Vivo without Noticeable Adverse Toxicity” (Molecules, 2022).

Where two headings read alike, the source gives them in different places.

For orientation: IC50 means the point on the concentration scale where inhibition reaches its midpoint.

Data set [1] relates to fifteen molecularly diverse glioblastoma patient-derived cell lines (PDCLs). On the set-up: method as in PMID 34638742. The following applies: cited from earlier work.
Data set [2] is described as follows: Dissolution of the lyophilized complex in water. It is filed as physicochemical. The following applies: 25 °C. As for the experimental part: To investigate the dissolution, an amount (5 mg) of the lyophilized SuccFerr:RAMEßCD complex was suspended in water. The suspension was incubated at 25 °C in a shaking-bath (200 strokes/min, Heito, France). One-milliliter aliquots were taken at various time intervals up to 24 h and centrifuged× 7200g, 5 min, (Denver Instruments, Bohemia, NY, USA). Each supernatant was analyzed by HPLC to assess the drug contents. The results are presented as mean ± SD of triplicate experiments. A dialysis was also realized under magnetic stirring with a 14,000 Da cut-off bag, containing 2 mL of an aqueous solution of 5 mg of SuccFerr:RAMEßCD and 498 mL of distilled water. Aliquots were taken and analyzed as previously described.

For the compound `O=C1CCC(=O)N1CCCC(=C(c1ccc(O)cc1)c1ccc(O)cc1)[c-]1cccc1.[Fe+2].c1cc[cH-]c1` [SuccFerr, N-[4-ferrocenyl,5-5-bis (4-hydroxyphenyl)-pent-4-enyl]-succinimide], the “IC50 ratio (highest/lowest)” value in data set [1] was “≈ 3000”. Further, the IC50 was around 30 µM in data set [1] (read-out: highest IC50 across the PDCLs) and 0.01 µM in data set [1] (read-out: lowest IC50 across the PDCLs). For the same compound, the “dissolution in distilled water” value in data set [2] was “cannot be dissolved and was undetectable”.
